Results reported in ChEMBL document CHEMBL5252536, “Discovery of VU0467485/AZ13713945: An M4 PAM Evaluated as a Preclinical Candidate for the Treatment of Schizophrenia” (ACS Med Chem Lett, 2017).
pEC50: −log10 of the molar value.

Legend:
[1] = Ratio of unbound drug level in Sprague-Dawley rat brain to plasma at 1 to 10 mg/kg, po by LC-MS/MS analysis; type: ADME, organism-based; conditions: dose 1-10 mg/kg, read-out: K(p,uu,brain)
Cytochrome P450 2C19 = Cytochrome P450 2C19 (Homo sapiens, UniProt P33261); assay: […] of human CYP2C19 mediated drug metabolism incubated for 5 mins followed by NADPH addition measured after 1 hr by LC-UV/MS analysis relative to control; type: ADME; conditions: recombinant enzyme, 1.083 h, time 65 min
[2] = Volume of distribution at steady state in Beagle dog at 3 mg/kg,po or 1 mg/kg,iv by LC-MS/MS analysis; type: ADME, organism-based, Canis lupus familiaris; conditions: in vivo
Rattus norvegicus = assay: Reversal of MK-801-induced hyperlocomotion activity in rat at 10 to 30 mg/kg,po preincubated for 30 mins followed by MK-801 addition and measured after 60 mins by open field test relative to control; type: functional; conditions: dose 10-30 mg/kg, time 90 min, 1.5 h
[3] = Positive allosteric modulator activity at dog M2 receptor expressed in CHO cells co-expressing Gqi5 assessed as maximal response to ACh by calcium mobilization assay; type: cell-based

Chain of Cytochrome P450 2C19 (P33261 whole entry): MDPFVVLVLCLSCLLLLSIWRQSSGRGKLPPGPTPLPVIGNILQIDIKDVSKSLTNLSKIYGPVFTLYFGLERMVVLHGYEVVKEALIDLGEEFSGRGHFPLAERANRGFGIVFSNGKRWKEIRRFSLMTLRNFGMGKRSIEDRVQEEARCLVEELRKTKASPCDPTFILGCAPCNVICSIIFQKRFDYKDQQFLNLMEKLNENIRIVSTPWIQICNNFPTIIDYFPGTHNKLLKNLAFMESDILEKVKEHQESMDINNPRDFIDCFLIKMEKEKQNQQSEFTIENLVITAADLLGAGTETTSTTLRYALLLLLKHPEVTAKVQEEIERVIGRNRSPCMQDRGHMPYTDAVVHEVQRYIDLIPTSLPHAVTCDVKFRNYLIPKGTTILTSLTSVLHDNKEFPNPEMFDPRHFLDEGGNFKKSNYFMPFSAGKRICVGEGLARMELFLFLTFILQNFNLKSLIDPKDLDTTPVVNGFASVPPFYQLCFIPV

Kp uu [1]: 0.37 | Activity (Cytochrome P450 2C19): 31.2% | Vdss [2]: 1.5 L/kg | pEC50 [3]: < 4.52
Compound: COc1ccc(CNC(=O)c2sc3nnc(C)c(C)c3c2N)cc1F
Activity (Rattus norvegicus): 41.1%
